Consider five compounds from patent publication US9288983B2, “Compositions of dibromomalonamide and their use as biocides” (Dow Global Technologies LLC, priority 2009, dated 2016).

Like-named read-outs stand apart in the source and are kept apart here. Where only a bound is given, the exact number is not on record here.

Assay [1] relates to mixture of Pseudomonas aeruginosa, Klebsiella pneumoniae, Staphylococcus aureus, and Bacillus subtilis. Nature of the assay: Growth inhibition assay (microtiter plate, OD580). Type of assay: cell-based. As to conditions: for I90 value: 24 hr; for % Inhibition of growth by single active / inhibition at 0.39 µg/mL / inhibition at 0.78 µg/mL / inhibition at 1.56 µg/mL / inhibition at 3.13 µg/mL / inhibition at 6.25 µg/mL / inhibition at 12.5 µg/mL / inhibition at 25 µg/mL: 24 h; for inhibition at 0.39 µg/mL / inhibition at 0.78 µg/mL / inhibition at 1.56 µg/mL / inhibition at 3.13 µg/mL / inhibition at 6.25 µg/mL / inhibition at 12.5 µg/mL / inhibition at 25 µg/mL: read-out: % Inhibition of growth by single active. From the text: Growth Inhibition Assay. […] Regardless of the mechanism of action, the impact of a biocide (or combination of biocides) can be measured over time on the basis of an increase in the size of the community.
The assay measures the efficacy of one or more biocides at preventing growth of a consortium of bacteria in a dilute mineral salts medium. The medium contains (in mg/l) the following components: FeCl3.6H2O (1); CaCl2.2H2O (10); MgSO4.7H2O (22.5); (NH4)2SO4 (40); KH2PO4 (10); K2HPO4 (25.5); Yeast Extract (10); and glucose (100). After all components are added to deionized water, the pH of the medium is adjusted to 7.5. Following filter sterilization, aliquots are dispensed in 100 ul quantities to sterile microtiter plate wells. Dilutions of DBMAL and/or “Biocide B” are then added to the microtiter plate. After preparing the combinations of actives as illustrated below, each well is inoculated with 100 μl of a cell suspension containing ca. […] cells per milliliter of a mixture of Pseudomonas aeruginosa, Klebsiella pneumoniae, Staphylococcus aureus, and Bacillus subtilis. The final total volume of medium in each well is 300 μl. Once prepared as described herein, the concentration of each active ranges from 25 ppm to 0.19 ppm as illustrated in Table 1. The resulting matrix allows testing of eight concentrations of each active and 64 combinations of actives in the ratios (of actives).
Controls (not shown) contain the medium with no biocide added. After preparing the combinations of actives as illustrated above, each well is inoculated with 100 μl of a cell suspension containing ca. […] cells per milliliter of a mixture of Pseudomonas aeruginosa, Klebsiella pneumoniae, Staphylococcus aureus, and Bacillus subtilis. The final total volume of medium in each well is 300 μl.
Immediately after the microtiter plates are prepared, the optical density (OD) readings for each well is measured at 580 nm and the plates are then incubated at 37° C. for 24 hr. After the incubation period, the plates are gently agitated before OD580 values are collected. The OD580 values at T0 are subtracted from T24 values to determine the total amount of growth (or lack thereof) that occurs. These values are used to calculate the percent inhibition of growth caused by the presence of each biocide and each of the 64 combinations.
where • CDBMAL: Concentration of DBMAL required to inhibit ˜90% of bacterial growth when used alone • CB: Concentration of biocide (B) required to inhibit ˜90% of bacterial growth when used alone. • MDBMAL: Concentration of DBMAL required to inhibit ˜90% of bacterial growth when used in combination with biocide (B). • MB: Concentration of biocide (B) required to inhibit ˜90% of bacterial growth when used in combination with DBMAL
(§1) The SI values are interpreted as follows: • SI<1: Synergistic combination • SI=1: Additive combination • SI>1: Antagonistic combination
(§2) In the Examples below, the amounts of biocides in the solution are measured in mg per liter of solution (mg/l). Since solution densities are approximately 1.0, the mg/l measurement corresponds to weight ppm. Both units may therefore be used interchangeably in the Examples.

Assay [2] concerns mixture of Pseudomonas aeruginosa ATCC 10045 and Staphylococcus aureus ATCC 6538. As to the kind of experiment: Kill assay (minimum biocide concentration, MBC). As to conditions: single active, 37° C., 2 hours. In kind it is cell-based. How it is done: The procedure is as follows.
as §1, §2

For `O=[N+]([O-])C(Br)=Cc1ccccc1` [BNS, bromonitrostyrene], the I90 value in assay [1] (Example 2, single active) was determined as 6.25 mg/L. Moreover, the “% Inhibition of growth by single active” value in assay [1] (Table 5, 0.78 mg/l alone) is 19%; in assay [1] (Table 5, 1.56 mg/l alone), 42%; in assay [1] (Table 5, 3.13 mg/l alone), 75%.

The inhibition is the share of the control response that was lost under treatment. For the compound `O=[N+]([O-])C(Br)(CO)CO` [Bronopol, 2-bromo-2-nitropropane-1,3-diol], in assay [1] (Table 3, 0.39 mg/l alone), the inhibition at 0.39 µg/mL was found to be 0%. In addition, the inhibition at 0.78 µg/mL in assay [1] (Table 3, 0.78 mg/l alone) was determined as 0%. In addition, the inhibition at 1.56 µg/mL in assay [1] (Table 3, 1.56 mg/l alone) amounted to 0%. Moreover, in assay [1] (Table 3, 3.13 mg/l alone), the inhibition at 3.13 µg/mL turned out to be 67%. For the same compound, the inhibition at 6.25 µg/mL in assay [1] (Table 3, 6.25 mg/l alone) is 96%. Also, the inhibition at 12.5 µg/mL in assay [1] (Table 3, 12.5 mg/l alone) worked out at 99%. In addition, in assay [1] (Table 3, 25.0 mg/l alone), the inhibition at 25 µg/mL was 97%. Moreover, the “MBC (minimum biocide concentration needed to completely kill the bacterial cells), biocide alone” value in assay [2] is more than 150 µg/mL.

Take `N#CCCC(Br)(C#N)CBr` (stereo not drawn) [DBDCB, 1,2-Dibromo-2,4-dicyanobutane]: in assay [1] (Table 9, 0.39 mg/l alone), the inhibition at 0.39 µg/mL turned out to be 0%. For the same compound, the inhibition at 0.78 µg/mL in assay [1] (Table 9, 0.78 mg/l alone) amounted to 0%. Also, the inhibition at 1.56 µg/mL in assay [1] (Table 9, 1.56 mg/l alone) is 17%. For the same compound, the inhibition at 3.13 µg/mL in assay [1] (Table 9, 3.13 mg/l alone) is 43%. Moreover, the inhibition at 6.25 µg/mL in assay [1] (Table 9, 6.25 mg/l alone) was determined as 100%. In addition, the inhibition at 12.5 µg/mL in assay [1] (Table 9, 12.5 mg/l alone) is 99%. In assay [1] (Table 9, 25.0 mg/l alone), the inhibition at 25 µg/mL worked out at 97%. Moreover, the I90 value in assay [1] (Example 4, single active) worked out at 6.25 mg/L.

`NC(=O)C(Br)(Br)C(N)=O` [DBMAL, 2,2-dibromomalonamide]: the inhibition at 0.39 µg/mL in assay [1] (Table 3, 0.39 mg/l alone) came out at 8%; in assay [1] (Table 5, 0.39 mg/l alone) it was 1%; in assay [1] (Table 7, 0.39 mg/l alone), 23%. Besides, the inhibition at 0.78 µg/mL stood at 12% in assay [1] (Table 3, 0.78 mg/l alone); 58% in assay [1] (Table 7, 0.78 mg/l alone); 11% in assay [1] (Table 9, 0.78 mg/l alone). In addition, the inhibition at 1.56 µg/mL in assay [1] (Table 3, 1.56 mg/l alone) was 13%; in assay [1] (Table 7, 1.56 mg/l alone) it was 52%; in assay [1] (Table 9, 1.56 mg/l alone), 14%. For the same compound, the inhibition at 3.13 µg/mL in assay [1] (Table 3, 3.13 mg/l alone) worked out at 17%; in assay [1] (Table 5, 3.13 mg/l alone), 34%; in assay [1] (Table 7, 3.13 mg/l alone), 61%; in assay [1] (Table 9, 3.13 mg/l alone), 20%. In addition, the inhibition at 12.5 µg/mL in assay [1] (Table 3, 12.5 mg/l alone) was 97%. Moreover, the inhibition at 6.25 µg/mL in assay [1] (Table 5, 6.25 mg/l alone) was 65%; in assay [1] (Table 7, 6.25 mg/l alone), 41%; in assay [1] (Table 9, 6.25 mg/l alone), 100%. For the same compound, the inhibition at 25 µg/mL was found to be 98% in assay [1] (Table 5, 25.0 mg/l alone) and 98% in assay [1] (Table 7, 25.0 mg/l alone). Also, the I90 value in assay [1] (Example 2, single active) is 12.5 mg/L; in assay [1] (Example 3, single active), 12.5 mg/L; in assay [1] (Example 4, single active) it was 6.25 mg/L. Also, the “MBC (minimum biocide concentration needed to completely kill the bacterial cells), biocide alone” value in assay [2] was determined as 66.7 µg/mL.

Take `N#CSCSC#N` [MBT, methylene bis(thiocyanate)]: the I90 value in assay [1] (Example 3, single active) worked out at 0.78 mg/L. Further, in assay [1] (Table 7, 0.39 mg/l alone), the “% Inhibition of growth by single active” value was 24%.
